Measured values taken from patent US10618875B2 (priority 2017, dated 2020).
Counter-ions that a name gives are not always drawn.

What was measured:
NCI-60 cell lines = test: cells; type: cell-based, human
[1] = mouse, in vivo
[2] = in vivo
[3] = test system: Hep3B-luc human liver tumor; parameters: species or system BALB/c nude mice; details: mouse

SMILES	delta of growth percent across all cell lines tested (NCI-60 cell lines) [%]	range of growth percent across all cell lines (NCI-60 cell lines) [%]	activity at 10 µM (NCI-60 cell lines; Homo sapiens, 48 h, read-out: mean growth percent of control across the NCI-60) [%]	inhibition at 10 µM (NCI-60 cell lines; Homo sapiens, read-out: growth inhibition in any of the NCI-60 cell lines) [%]	blood creatinine [1]	animals that died ([2]; male, C57BL/6, mouse) [%]	LD50 ([2]; mouse, po) [mpk]	BLI (in vivo bioluminescence) of Hep3B-luc tumor [3]
O=[N+]([O-])c1ccc(O)c([N+](=O)[O-])c1 [DNP, 2,4-dinitrophenol]	28.44	44.43	98.4	< 50	raised blood creatinine	50	100	–
CNC(=O)c1cc(Oc2ccc(NC(=O)Nc3ccc(Cl)c(C(F)(F)F)c3)cc2)ccn1 [Sorafenib, Sorafenib Tosylate]	–	–	–	–	–	–	–	showed a trend toward having an effects on decreasing BLI
